From PMC6418785, “Presenting Precision Glycomacromolecules on Gold Nanoparticles for Increased Lectin Binding” (Polymers, 2017)

Experiments:
Concanavalin A (Con A) [1] = biological target: T1, Concanavalin A (Con A) (Canavalia ensiformis, UniProt P02866); assay: SPR inhibition competition assay, Con A binding to mannosylated sensor chip; conditions: for IC50: 100 nM Con A, LBB; for RIP per Carbohydrate Ligand: corrected for carbohydrate number per nanoparticle; for RIP per Glycomacromolecular Ligand: corrected for glycomacromolecule number per nanoparticle; for RIP: relative inhibitory potency based on IC50 of αMeMan on same chip (IP ≡ 1)
T1 construct: purchased LKT Laboratories (Biomol, Hamburg, Germany)
Description: As sensor chip a SA (streptavidin) chip from GE Healthcare Life Sciences was used. The positive (α-D-Mannose-PAA-biotin, flow cell 2) and negative (α-D-Galactose-PAA-biotin, flow cell 1) control for Con A binding were immobilized on the sensor chip surface using the standard biotin streptavidin capture method as adapted from previously established protocols. Therefore, a 4.2 µg/mL solution of both polymers was prepared in HBS-P+ buffer (pH 7.4, GE Healthcare, Uppsala, Sweden). The same buffer was used as running buffer in a flow rate of 10 µL/min. For immobilization, the immobilization wizard was used with a specified contact time of 420 s. Sodium chloride, sodium hydroxide and isopropanol solutions were prepared as specified by the manufacturer. […] After approximately 500 measurement cycles, a new SA (streptavidin) chip was used for further measurements. For immobilization, the same procedure was used as described above.
SPR inhibition competition studies were performed using the wizard template kinetics/affinity with contact times of 105 s and dissociation times of 180 s. Before the run, the system was primed with LBB (pH 7.40 ± 0.01, 10 mM Hepes, 50 mM NaCl, 1 mM CaCl2, 1 mM MnCl2) which was used as running buffer and two startup cycles were performed. The experiment was performed in multi cycle mode. For all experiments a 1 mg/mL stock solution of Con A was prepared in LBB and was shaken for 1 h. Then it was filtrated (Acrodisc® 32 mm syringe filter with a 0.1 µm Supor® membrane from Pall Corporation, Newquay, UK) and the concentration was determined spectrophotometrically. The stock solution was diluted to give a 200 nM solution of Con A. Glyco-AuNP solutions were concentrated by centrifugation (Allegra^TM 25R Centrifuge, Beckman Coulter, Brea, CA, USA, 12 h, 4500 rcf) and were resuspended in LBB to give a 20 nM stock solution. The concentration was verified by UV measurement. This glyco-AuNP stock solution was then used to prepare the dilution series in LBB. […] For N-ethylmaleimide capped glycomacromolecule 1a a dilution series with concentrations of 0, 1, 10, 20, 50, 100, 200, 500, 1000 µM and 3a a dilution series with concentrations of 0, 2, 20, 100, 200, 500, 1000, 1500, 2000 nM was prepared. For αMeMan a dilution series with concentrations of 0, 10, 100, 500, 1000, 1500, 2000, 5000 µM was prepared. As negative control, four representative concentrations of 0, 10, 1500 and 5000 µM were prepared for D-(+)-galactose.
For the experiment Con A and sample solutions were mixed in a 1:1 ratio to give half of the prepared concentrations. Each mixture was injected over both flow cells whereas the binding signal on flow cell 1 was subtracted from the response on flow cell 2. As regeneration procedure three consecutive injections of a 0.8 M solution of αMeMan in LBB with a contact time of 30 s was used. The relative response value at the beginning of the dissociation phase (20 s after the end of sample injection) for the 100 nM Con A solution with zero sample concentration was set to 100% binding. The relative response values of the Con A solutions incubated with the respective sample in serial dilutions were referred to Con A and calculated for relative binding in %. IC50 values were calculated as concentration of the sample that result in 50% inhibition of Con A binding to the mannosylated sensor chip surface. RIP (relative inhibitory potency) values are based on the IC50 value for αMeMan (IP (inhibitory potency) ≡ 1). All glyco-AuNPs, glycomacromolecules and αMeMan have been tested in three independent experiments (triplicate determination per experiment for αMeMan and glyco-AuNPs, dublicate determination per experiment for glycomacromolecules 1a and 3a).

Concanavalin A (Con A) [2] = biological target: T1, Concanavalin A (Con A); assay: Kinetic study of aggregation behavior with Con A by DLS and UV-Vis spectroscopy; type: binding; conditions: αMeMan 60 mM added to wells or DLS cuvettes
Description: For the kinetic study of aggregation behavior with Con A performed by DLS and UV-Vis spectroscopy, a similar procedure as described by the group of Gibson was performed [41, 42].
For the kinetic studies using absorbance spectroscopy (Thermo Scientific, Vantaa, Finland), the stock solutions were mixed in wells of a 96-well microtiter-plate (100 µL of each solution per well). The absorbance at 400 and 700 nm was measured every minute for 30 min.
For the kinetic studies using DLS, the stock solutions were filtrated twice (Roth, Rotilabo® syringe filter, Karlsruhe, Germany, PTFE, 5.0 µm) and were pre-tempered to 20 °C. Then 750 µL of each stock solution were filled into the culture tubes and mixed. DLS measurements were performed at 20 °C and at a scattering angle of 90°. Every minute an intensity-time autocorrelation function was recorded with an acquisition time of 30 s during a period of 30 min.

[3] = SA sensor chip used for 1a and 3a (footnote 1)

OC[C@H]1OC(O)[C@H](O)[C@@H](O)[C@H]1O (stereo partly drawn) [D-(+)-galactose]
inhibition of Con A binding (Concanavalin A (Con A) [1]; negative control, four representative concentrations): no inhibition

CO[C@H]1O[C@H](CO)[C@@H](O)[C@H](O)[C@@H]1O [αMeMan, methyl-α-D-mannopyranoside]
redispersion of Con A induced glyco-AuNP aggregates (Concanavalin A (Con A) [2]): redispersion of the aggregates | IC50 (Concanavalin A (Con A) [1]; [3]): 325 µM | IC50 (Concanavalin A (Con A) [1]; SA sensor chip with αMeMan IC50 (5.17 ± 0.84) × 10^5 nM): 517 µM | RIP per Carbohydrate Ligand (Concanavalin A (Con A) [1]): 1 | RIP per Glycomacromolecular Ligand (Concanavalin A (Con A) [1]): 1 | RIP (Concanavalin A (Con A) [1]): 1

Man(2)-5-Gly(1)-EDS(3,4)-Cys(5)-N-ethylmaleimide [glycomacromolecule 1a]
IC50 (Concanavalin A (Con A) [1]; [3]): 70 µM | RIP per Carbohydrate Ligand (Concanavalin A (Con A) [1]): 5 | RIP per Glycomacromolecular Ligand (Concanavalin A (Con A) [1]): 5 | RIP (Concanavalin A (Con A) [1]): 5

Man(2,4,6,8,10)-11-Gly(1)-EDS(3,5,7,9)-Cys(11)-N-ethylmaleimide [glycomacromolecule 3a]
RIP per Carbohydrate Ligand (Concanavalin A (Con A) [1]): 419 | RIP per Glycomacromolecular Ligand (Concanavalin A (Con A) [1]): 2096 | RIP (Concanavalin A (Con A) [1]): 2096
